Laboratory results taken from patent publication US7074334B2, “Method for determining the binding behavior of ligands which specifically bind to target molecules” (priority 2001, dated 2006).
Values joined by “and” are separate entries in the source; they are usually repeats but may differ in a detail not shown here. Identical values can stand only once.

Key:
D2-type receptors = biological target: T1, D2-type receptors (Sus scrofa, UniProt F1SM69); assay: MS binding assay with marker spiroperidol in striatal membrane fraction, unbound marker quantified; set-up: species or system porcine
T1 construct: As native material which contains both D1 and D2 receptors in sufficient amount; from tissue; host or cells: porcine brain striatum, membrane fraction
T1 sequence (F1SM69 1-443): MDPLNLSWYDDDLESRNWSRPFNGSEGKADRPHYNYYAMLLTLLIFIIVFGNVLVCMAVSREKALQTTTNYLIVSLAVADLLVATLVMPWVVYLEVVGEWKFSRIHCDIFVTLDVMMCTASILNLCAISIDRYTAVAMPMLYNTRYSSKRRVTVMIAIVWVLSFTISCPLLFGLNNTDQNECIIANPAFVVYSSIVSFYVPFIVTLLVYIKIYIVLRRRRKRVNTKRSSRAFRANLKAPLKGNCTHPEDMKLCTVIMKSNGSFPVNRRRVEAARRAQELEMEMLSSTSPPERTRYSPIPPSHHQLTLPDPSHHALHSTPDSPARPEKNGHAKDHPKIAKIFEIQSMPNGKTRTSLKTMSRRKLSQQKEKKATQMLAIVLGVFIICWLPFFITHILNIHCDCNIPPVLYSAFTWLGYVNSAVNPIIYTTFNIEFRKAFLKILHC

D1-type receptors = D1-type receptors (Sus scrofa, UniProt P50130); settings: test substance 1 μmol/L
Sequence of D1-type receptors (P50130 whole entry): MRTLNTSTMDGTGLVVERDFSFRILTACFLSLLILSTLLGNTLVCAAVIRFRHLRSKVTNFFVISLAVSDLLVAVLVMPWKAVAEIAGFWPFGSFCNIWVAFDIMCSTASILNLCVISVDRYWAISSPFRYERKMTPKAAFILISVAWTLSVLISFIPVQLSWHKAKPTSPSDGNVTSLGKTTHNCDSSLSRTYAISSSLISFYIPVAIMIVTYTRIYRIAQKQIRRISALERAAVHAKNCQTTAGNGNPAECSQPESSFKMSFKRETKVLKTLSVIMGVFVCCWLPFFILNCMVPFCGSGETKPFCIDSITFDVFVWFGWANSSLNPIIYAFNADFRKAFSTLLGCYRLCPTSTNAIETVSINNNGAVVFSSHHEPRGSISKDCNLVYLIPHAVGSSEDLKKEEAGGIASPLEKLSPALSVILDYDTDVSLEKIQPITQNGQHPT

Row | Compound | inhibition of the specific binding of the marker spiroperidol to D2-type receptors (D2-type receptors; test substance 1 μmol/L) | inhibition of the specific binding of the marker SCH23390 to D1-type receptors (D1-type receptors) | concentration of unbound marker spiroperidol (D2-type receptors)
1 | COC(=O)c1ccccc1 [methyl benzoate] | not capable of inhibiting | none is capable | 
2 | O=C(CCCN1CCC2(CC1)C(=O)NCN2c1ccccc1)c1ccc(F)cc1 [spiroperidol] |  |  | 1.93 nmol/L and 2.75 nmol/L and 2.78 nmol/L and 2.29 nmol/L and 1.89 nmol/L
